Like-named read-outs stand apart in the source and are kept apart here.
Experiments:
SARS-CoV-2 nsp3-mac1 [1] = target: T1, SARS-CoV-2 nsp3-mac1 (Severe acute respiratory syndrome coronavirus 2, UniProt P0DTD1); assay: biochemical; design: SARS-CoV-2 nsp3 macrodomain TR-FRET single point, per cent inhibition, n=2
SARS-CoV-2 nsp3-mac1 [2] = target: T1, SARS-CoV-2 nsp3-mac1; assay: biochemical; type: biochemical; conditions: SARS-CoV-2 nsp3 macrodomain TR-FRET single point
[3] = read-out: perc_inhibition_mean, batch_name=ASAP-0000340-001
[4] = read-out: perc_inhibition_mean, batch_name=ASAP-0000284-001
[5] = read-out: perc_inhibition_mean, batch_name=ASAP-0000355-001
[6] = read-out: perc_inhibition_mean, batch_name=ASAP-0000247-001
[7] = read-out: perc_inhibition_mean, batch_name=ASAP-0000481-001
[8] = read-out: perc_inhibition_mean, batch_name=ASAP-0000282-001
[9] = read-out: perc_inhibition_mean, batch_name=ASAP-0000278-001
[10] = read-out: perc_inhibition_mean, batch_name=ASAP-0000283-001
[11] = read-out: perc_inhibition_mean, batch_name=ASAP-0000393-001
[12] = read-out: perc_inhibition_mean, batch_name=ASAP-0000390-001
[13] = read-out: perc_inhibition_mean, batch_name=ASAP-0000430-001

Structure (SMILES): Cn1cc(Br)c(CNC(=O)c2ccc(NC(=O)Nc3ccccc3)cc2)n1 [ASAP-0000340]
- inhibition at 49.75 µM (SARS-CoV-2 nsp3-mac1 [1]; [3]): 4.31%
- inhibition at 99.5 µM (SARS-CoV-2 nsp3-mac1 [1]; [3]): 1.2%
- perc_inhibition_mean (SARS-CoV-2 nsp3-mac1 [2]; concentration 49.75 uM, n=2): 4.308%
- perc_inhibition_mean (SARS-CoV-2 nsp3-mac1 [2]; concentration 99.5 uM, n=2): 1.196%

Structure (SMILES): CC[C@@H]1C[C@@H](C(=O)Nc2ncnc3[nH]c(C)c(C)c23)CCO1 [ASAP-0000201]
- inhibition at 50 µM (SARS-CoV-2 nsp3-mac1 [1]; read-out: perc_inhibition_mean, batch_name=ASAP-0000201-001): 12.1%
- perc_inhibition_mean (SARS-CoV-2 nsp3-mac1 [2]; concentration 50.0 uM): 12.08%

Structure (SMILES): Cc1cccc(Cl)c1-n1sc(=O)n(CC2CC2)c1=O [ASAP-0000110]
- inhibition at 50 µM (SARS-CoV-2 nsp3-mac1 [1]; read-out: perc_inhibition_mean, batch_name=ASAP-0000110-001): 51.9%
- perc_inhibition_mean (SARS-CoV-2 nsp3-mac1 [2]; concentration 50.0 uM): 51.933%

Structure (SMILES): O=C(Nc1cnc2[nH]ncc2c1)C1CCN(c2ccc3nncn3n2)CC1 [ASAP-0000016]
- inhibition at 50 µM (SARS-CoV-2 nsp3-mac1 [1]; read-out: perc_inhibition_mean, batch_name=ASAP-0000016-001): 17%
- perc_inhibition_mean (SARS-CoV-2 nsp3-mac1 [2]; concentration 50.0 uM): 16.966%

Structure (SMILES): Cc1nc(C(=O)N2CCC(c3ccn4ncc(C(=O)N5CCCCC5)c4c3)CC2)c(=O)[nH]c1C [ASAP-0000284]
- inhibition at 49.75 µM (SARS-CoV-2 nsp3-mac1 [1]; [4]): 26.4%
- inhibition at 99.5 µM (SARS-CoV-2 nsp3-mac1 [1]; [4]): 44.2%
- perc_inhibition_mean (SARS-CoV-2 nsp3-mac1 [2]; concentration 49.75 uM, n=2): 26.409%
- perc_inhibition_mean (SARS-CoV-2 nsp3-mac1 [2]; concentration 99.5 uM, n=2): 44.216%

Structure (SMILES): O=C(OCc1ncccc1Cl)c1ncnc2[nH]ccc12 [ASAP-0000120]
- inhibition at 50 µM (SARS-CoV-2 nsp3-mac1 [1]; read-out: perc_inhibition_mean, batch_name=ASAP-0000120-001): 5.06%
- perc_inhibition_mean (SARS-CoV-2 nsp3-mac1 [2]; concentration 50.0 uM): 5.063%

Structure (SMILES): COc1cccc(Cl)c1CNc1ncnc2[nH]ncc12 [ASAP-0000002]
- inhibition at 50 µM (SARS-CoV-2 nsp3-mac1 [1]; read-out: perc_inhibition_mean, batch_name=ASAP-0000002-001): -1.83%
- perc_inhibition_mean (SARS-CoV-2 nsp3-mac1 [2]; concentration 50.0 uM): -1.826%

Structure (SMILES): O=C(NCc1ncccn1)c1cnn2ccc(C3CCN(C(=O)c4ccccc4)CC3)cc12 [ASAP-0000355]
- inhibition at 49.75 µM (SARS-CoV-2 nsp3-mac1 [1]; [5]): -0.074%
- inhibition at 99.5 µM (SARS-CoV-2 nsp3-mac1 [1]; [5]): -6.66%
- perc_inhibition_mean (SARS-CoV-2 nsp3-mac1 [2]; concentration 49.75 uM): -0.074%
- perc_inhibition_mean (SARS-CoV-2 nsp3-mac1 [2]; concentration 99.5 uM): -6.657%

Structure (SMILES): CO[C@@H](CNc1ncnc2[nH]ccc12)c1cccc(Cl)c1 [ASAP-0000247]
- inhibition at 50 µM (SARS-CoV-2 nsp3-mac1 [1]; [6]): 4.1%
- inhibition at 100 µM (SARS-CoV-2 nsp3-mac1 [1]; [6]): 14.2%
- perc_inhibition_mean (SARS-CoV-2 nsp3-mac1 [2]; concentration 50.0 uM): 4.096%
- perc_inhibition_mean (SARS-CoV-2 nsp3-mac1 [2]; concentration 100.0 uM): 14.175%

Structure (SMILES): CC(C)[C@@H](CCN(C)C(=O)C1CCc2ccccc2CC1)Nc1ncnc2[nH]ccc12 [ASAP-0000481]
- inhibition at 49.75 µM (SARS-CoV-2 nsp3-mac1 [1]; [7]): -5.62%
- inhibition at 99.5 µM (SARS-CoV-2 nsp3-mac1 [1]; [7]): -10.9%
- perc_inhibition_mean (SARS-CoV-2 nsp3-mac1 [2]; concentration 49.75 uM): -5.62%
- perc_inhibition_mean (SARS-CoV-2 nsp3-mac1 [2]; concentration 99.5 uM): -10.916%

Structure (SMILES): O=C(NC1CCC(F)(F)CC1)c1ncnc2[nH]ccc12 [ASAP-0000282]
- inhibition at 49.75 µM (SARS-CoV-2 nsp3-mac1 [1]; [8]): -3.47%
- inhibition at 99.5 µM (SARS-CoV-2 nsp3-mac1 [1]; [8]): -5.78%
- perc_inhibition_mean (SARS-CoV-2 nsp3-mac1 [2]; concentration 49.75 uM, n=2): -3.47%
- perc_inhibition_mean (SARS-CoV-2 nsp3-mac1 [2]; concentration 99.5 uM, n=2): -5.78%

Structure (SMILES): Cc1ncc(NCc2csc(-c3ccccn3)n2)cn1 [ASAP-0000278]
- inhibition at 49.75 µM (SARS-CoV-2 nsp3-mac1 [1]; [9]): -5.23%
- inhibition at 99.5 µM (SARS-CoV-2 nsp3-mac1 [1]; [9]): -4.49%
- perc_inhibition_mean (SARS-CoV-2 nsp3-mac1 [2]; concentration 49.75 uM, n=2): -5.23%
- perc_inhibition_mean (SARS-CoV-2 nsp3-mac1 [2]; concentration 99.5 uM, n=2): -4.487%

Structure (SMILES): O=S(=O)(Nc1cnc2[nH]ncc2c1)c1cnn(C2CCCC2)c1 [ASAP-0000011]
- inhibition at 50 µM (SARS-CoV-2 nsp3-mac1 [1]; read-out: perc_inhibition_mean, batch_name=ASAP-0000011-001): 0.415%
- perc_inhibition_mean (SARS-CoV-2 nsp3-mac1 [2]; concentration 50.0 uM): 0.415%

Structure (SMILES): Cc1n[nH]nc1C(=O)N1CCC(c2ccn3ncc(C(=O)N4CCCCC4)c3c2)CC1 [ASAP-0000283]
- inhibition at 49.75 µM (SARS-CoV-2 nsp3-mac1 [1]; [10]): 29.3%
- inhibition at 99.5 µM (SARS-CoV-2 nsp3-mac1 [1]; [10]): 45.8%
- perc_inhibition_mean (SARS-CoV-2 nsp3-mac1 [2]; concentration 49.75 uM, n=2): 29.33%
- perc_inhibition_mean (SARS-CoV-2 nsp3-mac1 [2]; concentration 99.5 uM, n=2): 45.786%

Structure (SMILES): Cc1[nH]cnc1C(=O)N1CCC(c2ccn3ncc(C(=O)N4CCCCC4)c3c2)CC1 [ASAP-0000393]
- inhibition at 49.75 µM (SARS-CoV-2 nsp3-mac1 [1]; [11]): 16.4%
- inhibition at 99.5 µM (SARS-CoV-2 nsp3-mac1 [1]; [11]): 32%
- perc_inhibition_mean (SARS-CoV-2 nsp3-mac1 [2]; concentration 49.75 uM): 16.419%
- perc_inhibition_mean (SARS-CoV-2 nsp3-mac1 [2]; concentration 99.5 uM): 32.041%

Structure (SMILES): Cc1nc(C(=O)N2CCC(c3ccn4ncc(C(=O)N5CCCCC5)c4c3)CC2)c(C)[nH]1 [ASAP-0000390]
- inhibition at 49.75 µM (SARS-CoV-2 nsp3-mac1 [1]; [12]): 16.8%
- inhibition at 99.5 µM (SARS-CoV-2 nsp3-mac1 [1]; [12]): 27.5%
- perc_inhibition_mean (SARS-CoV-2 nsp3-mac1 [2]; concentration 49.75 uM): 16.798%
- perc_inhibition_mean (SARS-CoV-2 nsp3-mac1 [2]; concentration 99.5 uM): 27.519%

Structure (SMILES): O=C(c1nnn[nH]1)N1CCC(c2ccn3ncc(C(=O)N4CCCCC4)c3c2)CC1 [ASAP-0000430]
- inhibition at 49.75 µM (SARS-CoV-2 nsp3-mac1 [1]; [13]): 55.2%
- inhibition at 99.5 µM (SARS-CoV-2 nsp3-mac1 [1]; [13]): 69%
- perc_inhibition_mean (SARS-CoV-2 nsp3-mac1 [2]; concentration 49.75 uM): 55.152%
- perc_inhibition_mean (SARS-CoV-2 nsp3-mac1 [2]; concentration 99.5 uM): 69.012%

Structure (SMILES): Fc1ccc(OC(F)F)c(CNc2cnc3[nH]ncc3c2)c1 [ASAP-0000015]
- inhibition at 50 µM (SARS-CoV-2 nsp3-mac1 [1]; read-out: perc_inhibition_mean, batch_name=ASAP-0000015-002): -6.67%
- perc_inhibition_mean (SARS-CoV-2 nsp3-mac1 [2]; concentration 50.0 uM): -6.672%
